{"source": "patent US20110301199A1", "about": "“COMPOSITIONS AND METHODS FOR TREATING MYELODYSPLASTIC SYNDROME” (Telik, Inc., priority 2010, published 2011)", "key": {"[1]": {"system": "Low to Intermediate-1 Risk Myelodysplastic Syndrome", "test": "Clinical study of ezatiostat hydrochloride tablets in MDS patients: adverse events (safety)", "assay_type": "in vivo, human", "protocol": "Eighty-seven patients were randomized and treated at 23 investigational sites. After initial dose ranging in 14 patients, two dose levels were selected for further study. Subsequently, 37 patients were treated at 3 grams daily for two weeks followed by a one week rest period, and 36 patients were treated at 2 grams daily for three weeks followed by a one week rest period. The data on these 73 patients was pooled for this preliminary analysis.\nThe safety data is based on all patients treated."}, "[2]": {"system": "Low to Intermediate-1 Risk Myelodysplastic Syndrome", "test": "Clinical study of ezatiostat hydrochloride tablets in IPSS low to intermediate-1 risk MDS patients: hematologic improvement and efficacy", "assay_type": "in vivo, human", "details": "for significant RBC transfusion reduction: five of 11 patients; for HI-E Response Rate (95% Confidence Interval): prior DMTI Yes, N 15", "description": "Subsequently, 37 patients were treated at 3 grams daily for two weeks followed by a one week rest period, and 36 patients were treated at 2 grams daily for three weeks followed by a one week rest period.\nThe median age was 72 years, with a patient population distribution of IPSS low risk (23 patients, 32%) and intermediate-1 risk (50 patients, 68%)."}, "[3]": {"details": "1 g b.i.d. 3 weeks on & 1 week off (N = 31)"}, "[4]": {"details": "1 g b.i.d. 3 weeks on & 1 week off, 6 responders"}, "[5]": {"details": "1.5 g b.i.d. 2 weeks on & 1 week off (N = 29)"}, "[6]": {"details": "1.5 g b.i.d. 2 weeks on & 1 week off, 7 responders"}}}
{"smiles": "CCOC(=O)[C@@H](N)CCC(=O)N[C@@H](CSCc1ccccc1)C(=O)N[C@@H](C(=O)OCC)c1ccccc1", "note": "[Telintra, ethyl (2S)-2-amino-5-[[(2R)-3-benzylsulfanyl-1-[[(1R)-2-ethoxy-2-oxo-1-phenylethyl]amino]-1-oxopropan-2-yl]amino]-5-oxopentanoate]", "values": [{"measurement": "diarrhea, Grade 1 adverse event", "setting": "[1]; all patients treated", "value": 25, "unit": "%"}, {"measurement": "diarrhea, Grade 2 adverse event", "setting": "[1]; all patients treated", "value": 7, "unit": "%"}, {"measurement": "diarrhea, Grade 3 adverse event", "setting": "[1]; all patients treated", "value": 3, "unit": "%"}, {"measurement": "nausea, Grade 1 adverse event", "setting": "[1]; all patients treated", "value": 45, "unit": "%"}, {"measurement": "nausea, Grade 2 adverse event", "setting": "[1]; all patients treated", "value": 16, "unit": "%"}, {"measurement": "nausea, Grade 3 adverse event", "setting": "[1]; all patients treated", "value": 1, "unit": "%"}, {"measurement": "vomiting, Grade 1 adverse event", "setting": "[1]; all patients treated", "value": 30, "unit": "%"}, {"measurement": "vomiting, Grade 2 adverse event", "setting": "[1]; all patients treated", "value": 12, "unit": "%"}, {"measurement": "vomiting, Grade 3 adverse event", "setting": "[1]; all patients treated", "value": 2, "unit": "%"}, {"measurement": "incidence of GI AEs with prior DMTI treatment", "setting": "[1]; patients with prior DMTI treatment", "value": "increased incidence"}, {"measurement": "Duration of HI-E Response, Median (95% CI)", "setting": "[2]; 1 g b.i.d. 3 weeks on & 1 week off", "value": "46.1 (10.0-46.1) Weeks"}, {"measurement": "Time to HI-E Response, Max", "setting": "[2]; [3]", "value": 11.3, "unit": "Weeks"}, {"measurement": "Time to HI-E Response, Mean", "setting": "[2]; [3]", "value": "8.9 (1.29) ^ Weeks"}, {"measurement": "Time to HI-E Response, Min", "setting": "[2]; [3]", "value": 8.0, "unit": "Weeks"}, {"measurement": "Duration of HI-E Response, # Censored", "setting": "[2]; [4]", "value": "4 (66.7%)"}, {"measurement": "Duration of HI-E Response, # Event", "setting": "[2]; [4]", "value": "2 (33.3%)"}, {"measurement": "Duration of HI-E Response, Median (95% CI)", "setting": "[2]; 1.5 g b.i.d. 2 weeks on & 1 week off", "value": "18.4 (3.1-51.0) Weeks"}, {"measurement": "Time to HI-E Response, Max", "setting": "[2]; [5]", "value": 10.0, "unit": "Weeks"}, {"measurement": "Time to HI-E Response, Mean", "setting": "[2]; [5]", "value": "8.4 (0.72) ^ Weeks"}, {"measurement": "Time to HI-E Response, Min", "setting": "[2]; [5]", "value": 8.0, "unit": "Weeks"}, {"measurement": "Duration of HI-E Response, # Censored", "setting": "[2]; [6]", "value": "2 (28.6%)"}, {"measurement": "Duration of HI-E Response, # Event", "setting": "[2]; [6]", "value": "5 (71.4%)"}, {"measurement": "RBC transfusion independence", "setting": "[2]; 4 of 38 RBC transfusion-dependent patients", "value": 11, "unit": "%"}, {"measurement": "clinically significant RBC transfusion reductions (reduction of 4 U/8 weeks, IWG 2006)", "setting": "[2]; 11 of 38 RBC transfusion-dependent patients", "value": 29, "unit": "%"}, {"measurement": "effect of prior Revlimid treatment on HI-E response", "setting": "[2]; logistic regression analysis", "value": "enhance"}, {"measurement": "decrease in the odds for a HI-E response predicted by prior DMTI treatment", "setting": "[2]; logistic regression analysis, p=0.023", "value": "five-fold"}, {"measurement": "significant RBC transfusion reduction", "setting": "[2]; no prior Revlimid, no prior DMTI", "value": 45, "unit": "%"}, {"measurement": "complete remission continued following discontinuation of therapy", "setting": "[2]; one patient", "value": "more than 12 months"}, {"measurement": "HI-E Response Rate (95% Confidence Interval)", "setting": "[2]; prior Revlimid No", "value": "0.0% (0.0%-21.8%)"}, {"measurement": "HI-E Response Rate (95% Confidence Interval)", "setting": "[2]; prior Revlimid Yes, listed as ezatiostat hydrochloride", "value": "about 20%"}, {"measurement": "significant RBC transfusion reduction", "setting": "[2]; prior Revlimid, no prior DMTI", "value": 45, "unit": "%"}, {"measurement": "transfusion independence", "setting": "[2]; prior Revlimid, no prior DMTI, three of 11 patients", "value": 27, "unit": "%"}]}
